Activity calls are given as the source filed them.
Assays:
[1] = target: T1, Leucine aminopeptidase (Plasmodium falciparum 3D7, UniProt Q8IL11); experiment: P. falciparum M17LAP inhibitors, primary screen, biochemical, fluorogenic H-Leu-NHMec substrate, 1536-well (AID 1619); type: functional
T1 sequence (Q8IL11 whole entry): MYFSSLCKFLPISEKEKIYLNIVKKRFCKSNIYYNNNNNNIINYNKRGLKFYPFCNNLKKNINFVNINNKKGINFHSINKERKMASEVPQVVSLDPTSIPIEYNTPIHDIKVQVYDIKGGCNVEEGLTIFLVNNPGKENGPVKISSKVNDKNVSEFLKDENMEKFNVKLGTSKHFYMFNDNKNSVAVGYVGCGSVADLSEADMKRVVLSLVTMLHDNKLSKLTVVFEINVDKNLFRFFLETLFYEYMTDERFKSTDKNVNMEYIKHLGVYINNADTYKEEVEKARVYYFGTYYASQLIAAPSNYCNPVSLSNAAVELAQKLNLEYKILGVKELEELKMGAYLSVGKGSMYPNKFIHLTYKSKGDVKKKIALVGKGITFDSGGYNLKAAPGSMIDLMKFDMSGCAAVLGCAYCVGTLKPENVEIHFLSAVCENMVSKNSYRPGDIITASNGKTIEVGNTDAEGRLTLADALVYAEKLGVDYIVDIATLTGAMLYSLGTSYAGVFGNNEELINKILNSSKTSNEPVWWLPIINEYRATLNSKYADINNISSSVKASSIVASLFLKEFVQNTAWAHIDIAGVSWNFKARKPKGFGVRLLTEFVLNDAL

[2] = target: T2, Alkaline phosphatase, tissue-nonspecific isozyme (Homo sapiens, UniProt P05186)
T2 sequence (P05186 whole entry): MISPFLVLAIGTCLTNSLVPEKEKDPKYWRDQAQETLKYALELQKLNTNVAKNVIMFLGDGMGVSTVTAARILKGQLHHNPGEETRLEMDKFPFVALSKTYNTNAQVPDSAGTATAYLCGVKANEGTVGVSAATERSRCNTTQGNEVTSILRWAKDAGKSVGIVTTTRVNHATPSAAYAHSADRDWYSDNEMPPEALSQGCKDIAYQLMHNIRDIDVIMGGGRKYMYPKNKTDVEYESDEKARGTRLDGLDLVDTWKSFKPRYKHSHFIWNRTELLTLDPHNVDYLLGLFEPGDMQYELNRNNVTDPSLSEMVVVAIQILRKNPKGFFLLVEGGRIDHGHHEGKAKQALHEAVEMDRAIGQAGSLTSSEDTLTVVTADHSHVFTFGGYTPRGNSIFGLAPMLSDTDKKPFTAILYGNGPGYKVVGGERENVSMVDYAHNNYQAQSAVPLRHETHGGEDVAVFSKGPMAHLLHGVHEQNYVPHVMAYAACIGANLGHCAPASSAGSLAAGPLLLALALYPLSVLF

[3] = target: T3, Bcl-2-like protein 10 (Homo sapiens, UniProt Q9HD36); experiment: Concentration-response of Bcl-B inhibitors by biochemical FP with TR3 (AID 1243); type: functional
T3 sequence (Q9HD36 whole entry): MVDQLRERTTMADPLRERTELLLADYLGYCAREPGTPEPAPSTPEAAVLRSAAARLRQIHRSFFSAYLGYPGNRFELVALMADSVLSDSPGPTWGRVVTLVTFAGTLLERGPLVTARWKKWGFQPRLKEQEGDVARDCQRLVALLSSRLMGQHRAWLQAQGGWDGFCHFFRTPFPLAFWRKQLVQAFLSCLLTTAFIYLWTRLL

[4] = Counterscreen for IDE inhibitors: Luminescence-based cell-based high throughput dose response assay to identify compounds that are cytotoxic to HEK cells. [Related pubchem assays: 434962 (Primary screen (IDE inhibitors in singlicate)), 449730 (Counterscreen (Cytotoxicity in triplicate)), 435028 (Confirmation (IDE inhibitors in triplicate)) …; type: functional; conditions: HEK293
[5] = target: T4, Insulin-degrading enzyme (Homo sapiens, UniProt P14735); experiment: Dose Response: Fluorescence polarization-based cell-based high throughput dose response assay for inhibitors of insulin-degrading enzyme (IDE). [Related pubchem assays: 434962 (Primary screen (IDE inhibitors in singlicate)), 449730 (Counterscreen (Cytotoxicity in triplicate)), 435028 (Confirmation (IDE inhibitors in triplicate)), 434984 (Summary …; type: functional
T4 sequence (P14735 whole entry): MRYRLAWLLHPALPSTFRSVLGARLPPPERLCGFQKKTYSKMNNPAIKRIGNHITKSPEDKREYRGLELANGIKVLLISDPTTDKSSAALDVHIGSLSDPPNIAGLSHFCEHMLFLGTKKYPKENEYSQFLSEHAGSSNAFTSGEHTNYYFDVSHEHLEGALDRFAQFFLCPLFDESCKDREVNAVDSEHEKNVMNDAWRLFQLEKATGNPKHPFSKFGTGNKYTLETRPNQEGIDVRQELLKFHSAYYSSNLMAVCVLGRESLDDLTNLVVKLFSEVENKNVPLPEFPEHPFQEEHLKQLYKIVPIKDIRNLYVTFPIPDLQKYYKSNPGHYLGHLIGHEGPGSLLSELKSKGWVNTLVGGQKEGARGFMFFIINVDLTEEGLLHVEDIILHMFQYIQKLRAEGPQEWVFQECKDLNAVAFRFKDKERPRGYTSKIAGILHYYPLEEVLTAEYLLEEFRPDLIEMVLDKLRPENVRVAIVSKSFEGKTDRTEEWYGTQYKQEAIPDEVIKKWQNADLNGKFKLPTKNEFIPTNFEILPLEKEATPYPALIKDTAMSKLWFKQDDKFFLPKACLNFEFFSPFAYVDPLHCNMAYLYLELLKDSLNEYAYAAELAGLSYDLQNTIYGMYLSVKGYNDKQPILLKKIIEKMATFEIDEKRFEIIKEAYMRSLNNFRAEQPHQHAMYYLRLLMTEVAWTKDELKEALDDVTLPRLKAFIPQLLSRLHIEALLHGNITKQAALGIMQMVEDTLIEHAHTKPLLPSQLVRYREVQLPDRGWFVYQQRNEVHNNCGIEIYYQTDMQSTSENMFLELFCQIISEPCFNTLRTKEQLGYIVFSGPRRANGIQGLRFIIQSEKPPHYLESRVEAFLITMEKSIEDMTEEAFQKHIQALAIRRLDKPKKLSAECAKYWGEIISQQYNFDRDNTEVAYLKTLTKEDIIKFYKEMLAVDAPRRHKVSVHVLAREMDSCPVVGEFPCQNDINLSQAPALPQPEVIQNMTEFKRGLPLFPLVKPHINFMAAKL

[6] = mitochondrial function rescue without frataxin homolog – Friedreich's ataxia, plus single-dose screen, dose response (AID 1465); type: functional;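 note: yeast depleted of Yfh1p frataxin homolog grown on glycerol needing respiration; WST-1 tetrazolium dye reduction as measure of cellular dehydrogenase metabolic activity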
[7] = target: Potassium voltage-gated channel subfamily KQT member 2 (Rattus norvegicus, UniProt O88943, W236L); experiment: potentiation of rat KCNQ2 current – cell-based, automated electrophysiology, mechanism study for KCNQ2 potentiator project, dose response (AID 2603); type: functional
Sequence of Potassium voltage-gated channel subfamily KQT member 2 (O88943 whole entry W236L): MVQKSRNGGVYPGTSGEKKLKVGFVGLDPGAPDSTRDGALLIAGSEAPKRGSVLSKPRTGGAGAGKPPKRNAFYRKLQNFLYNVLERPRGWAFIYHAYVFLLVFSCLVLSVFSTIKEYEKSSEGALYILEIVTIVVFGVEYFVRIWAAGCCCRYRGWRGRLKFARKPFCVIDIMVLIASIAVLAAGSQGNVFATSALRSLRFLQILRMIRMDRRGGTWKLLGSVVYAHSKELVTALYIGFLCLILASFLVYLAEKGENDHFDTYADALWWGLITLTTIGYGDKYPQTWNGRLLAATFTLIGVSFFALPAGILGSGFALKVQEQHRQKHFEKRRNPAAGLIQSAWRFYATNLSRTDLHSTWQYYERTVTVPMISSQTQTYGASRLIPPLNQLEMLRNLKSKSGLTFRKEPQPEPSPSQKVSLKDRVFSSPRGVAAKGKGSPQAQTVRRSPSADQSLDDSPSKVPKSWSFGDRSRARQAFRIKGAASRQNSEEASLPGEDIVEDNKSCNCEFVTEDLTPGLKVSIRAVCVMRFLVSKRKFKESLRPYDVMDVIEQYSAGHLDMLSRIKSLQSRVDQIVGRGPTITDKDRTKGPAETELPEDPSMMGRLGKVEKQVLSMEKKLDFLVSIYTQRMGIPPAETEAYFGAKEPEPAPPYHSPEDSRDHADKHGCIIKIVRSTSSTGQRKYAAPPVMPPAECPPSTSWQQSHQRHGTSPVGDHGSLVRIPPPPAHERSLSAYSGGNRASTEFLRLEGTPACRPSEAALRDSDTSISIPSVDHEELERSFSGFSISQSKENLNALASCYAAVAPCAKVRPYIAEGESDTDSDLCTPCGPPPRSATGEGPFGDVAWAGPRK

[8] = target: T5, Adenosylmethionine-8-amino-7-oxononanoate aminotransferase (Mycobacterium tuberculosis, UniProt P9WQ81); experiment: Mycobacterium tuberculosis BioA enzyme inhibitor Measured in Biochemical System Using Plate Reader - 2163-02_Inhibitor_Dose_CherryPick_Activity.; type: functional, Mycobacterium tuberculosis UT205
T5 sequence (P9WQ81 whole entry): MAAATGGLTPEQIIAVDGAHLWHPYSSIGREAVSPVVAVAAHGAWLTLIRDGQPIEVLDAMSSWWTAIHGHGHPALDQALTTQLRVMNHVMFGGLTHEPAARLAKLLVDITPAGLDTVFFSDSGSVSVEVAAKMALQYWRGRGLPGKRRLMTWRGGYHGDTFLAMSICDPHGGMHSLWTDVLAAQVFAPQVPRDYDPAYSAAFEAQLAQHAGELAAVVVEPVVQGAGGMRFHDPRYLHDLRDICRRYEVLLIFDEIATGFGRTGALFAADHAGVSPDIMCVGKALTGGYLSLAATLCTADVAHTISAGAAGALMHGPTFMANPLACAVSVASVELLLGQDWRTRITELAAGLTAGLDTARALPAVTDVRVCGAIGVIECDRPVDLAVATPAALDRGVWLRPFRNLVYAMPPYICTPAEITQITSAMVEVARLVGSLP

[9] = Luminescence-based counterscreen assay for KLF5 inhibitors: dose response cell-based high throughput screening assay to identify cytotoxic compounds using the IEC-6 intestinal epithelial cell line. [Related pubchem assays: 1700 (Primary screen.), 1834 (Confirmation screen.), 1858 (Summary AID.), 1905 (Counterscreen.)]; type: functional
[10] = ADP-Glo luciferase signal interference – biochemical, luminescence, cherry-picked samples, set 2, artefact control for CDK5 inhibitor project, dose response (AID 504546); type: functional, cell-based
[11] = HEK-293T viability loss after treatment – luminescence, T-cell screen hits, cytotoxicity control for TCR NF-kB inhibitor project, dose response (AID 489026); type: functional, cell-based;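 note: cells exposed to compound about 14 hours before the viability readout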
[12] = tested on: Vero; experiment: cells; type: functional; conditions: Chlorocebus sabaeus
[13] = tested on: HEK293; experiment: cells; conditions: Homo sapiens;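 note: cells exposed to compound for 14 hours overnight before viability readout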
[14] = target: Aspartyl aminopeptidase (Plasmodium falciparum 3D7, UniProt Q8I2J3)
[15] = target: Procathepsin L (Homo sapiens, UniProt P07711)
Sequence of Procathepsin L (P07711 whole entry): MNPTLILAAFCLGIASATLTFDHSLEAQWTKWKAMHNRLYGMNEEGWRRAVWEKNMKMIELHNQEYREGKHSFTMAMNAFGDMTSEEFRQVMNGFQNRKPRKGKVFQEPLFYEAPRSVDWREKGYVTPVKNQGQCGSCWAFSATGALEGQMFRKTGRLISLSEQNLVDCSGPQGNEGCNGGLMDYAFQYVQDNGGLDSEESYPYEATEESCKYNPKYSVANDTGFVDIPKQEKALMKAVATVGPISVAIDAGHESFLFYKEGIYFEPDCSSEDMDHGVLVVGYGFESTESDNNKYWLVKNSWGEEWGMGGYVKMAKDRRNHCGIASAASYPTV

[16] = target: Scavenger receptor class B member 1 (Mus musculus, UniProt Q61009); experiment: mouse SR-BI DiI-HDL uptake blockers – ldlA[mSR-BI] cells, fluorescence, cherry pick, dose response (AID 493194); type: functional, cell-based;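 note: cellular uptake of fluorescent DiI-labeled HDL measured as cell fluorescence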
Sequence of Scavenger receptor class B member 1 (Q61009 whole entry, the tested form may be a part): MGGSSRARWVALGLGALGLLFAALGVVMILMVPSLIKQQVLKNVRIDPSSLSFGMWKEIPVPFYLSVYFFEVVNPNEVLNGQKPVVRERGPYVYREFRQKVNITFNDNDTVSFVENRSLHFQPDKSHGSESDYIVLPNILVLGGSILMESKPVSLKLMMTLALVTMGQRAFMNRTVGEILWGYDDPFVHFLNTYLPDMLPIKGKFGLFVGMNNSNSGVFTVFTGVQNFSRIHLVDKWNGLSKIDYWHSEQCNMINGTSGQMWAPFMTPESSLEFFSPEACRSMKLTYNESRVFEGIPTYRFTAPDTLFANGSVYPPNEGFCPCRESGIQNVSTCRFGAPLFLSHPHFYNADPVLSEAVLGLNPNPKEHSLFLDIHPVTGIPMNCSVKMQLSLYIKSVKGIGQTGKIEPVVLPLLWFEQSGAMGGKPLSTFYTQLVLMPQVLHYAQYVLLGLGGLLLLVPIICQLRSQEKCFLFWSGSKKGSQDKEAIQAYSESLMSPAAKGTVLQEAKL

[17] = target: Disintegrin and metalloproteinase domain-containing protein 17 (Homo sapiens, UniProt P78536); experiment: exosite inhibitors of ADAM17, dose response, biochemical (AID 743260)
[18] = inhibition of ADAM10 peptide cleavage – biochemical, FRET peptide substrate, recombinant human ADAM10, selectivity assay for ADAM17 exosite inhibitor project, dose response (AID 743259);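 note: ADAM10 enzyme cleaving a FRET peptide substrate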
[19] = target: Beta-galactosidase (Escherichia coli, UniProt Q8VNN2); type: functional
Sequence of Beta-galactosidase (Q8VNN2 whole entry): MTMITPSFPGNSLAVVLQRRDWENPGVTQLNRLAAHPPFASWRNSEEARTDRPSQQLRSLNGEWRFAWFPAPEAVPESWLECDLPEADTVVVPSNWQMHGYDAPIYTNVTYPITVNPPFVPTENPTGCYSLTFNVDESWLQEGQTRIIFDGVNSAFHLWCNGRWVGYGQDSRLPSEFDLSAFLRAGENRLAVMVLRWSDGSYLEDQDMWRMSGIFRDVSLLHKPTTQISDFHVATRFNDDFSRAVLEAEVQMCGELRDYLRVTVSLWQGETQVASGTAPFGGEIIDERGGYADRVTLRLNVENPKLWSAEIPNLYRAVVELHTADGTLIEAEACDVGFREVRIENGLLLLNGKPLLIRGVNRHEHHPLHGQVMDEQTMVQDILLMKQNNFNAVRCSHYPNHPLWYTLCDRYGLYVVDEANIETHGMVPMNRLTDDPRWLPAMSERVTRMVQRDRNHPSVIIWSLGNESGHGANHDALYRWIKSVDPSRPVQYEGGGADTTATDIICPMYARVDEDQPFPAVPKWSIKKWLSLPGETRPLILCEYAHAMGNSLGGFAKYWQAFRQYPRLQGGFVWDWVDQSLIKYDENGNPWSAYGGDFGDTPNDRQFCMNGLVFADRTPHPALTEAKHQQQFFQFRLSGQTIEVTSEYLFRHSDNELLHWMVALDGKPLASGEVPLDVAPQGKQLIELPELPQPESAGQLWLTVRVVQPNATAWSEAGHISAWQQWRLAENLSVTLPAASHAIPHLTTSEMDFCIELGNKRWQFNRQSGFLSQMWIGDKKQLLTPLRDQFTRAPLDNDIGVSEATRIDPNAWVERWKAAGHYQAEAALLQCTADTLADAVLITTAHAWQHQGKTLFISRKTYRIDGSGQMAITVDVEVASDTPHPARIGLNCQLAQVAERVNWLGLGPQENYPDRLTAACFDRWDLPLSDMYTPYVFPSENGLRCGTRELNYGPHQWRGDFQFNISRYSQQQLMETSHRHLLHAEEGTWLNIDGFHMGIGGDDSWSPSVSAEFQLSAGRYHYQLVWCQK

[20] = target: NS3 (Hepatitis C virus, UniProt A3EZJ3); experiment: PubChem AID 2173; design: species or system Hepacivirus hominis
Sequence of NS3 (A3EZJ3 whole entry): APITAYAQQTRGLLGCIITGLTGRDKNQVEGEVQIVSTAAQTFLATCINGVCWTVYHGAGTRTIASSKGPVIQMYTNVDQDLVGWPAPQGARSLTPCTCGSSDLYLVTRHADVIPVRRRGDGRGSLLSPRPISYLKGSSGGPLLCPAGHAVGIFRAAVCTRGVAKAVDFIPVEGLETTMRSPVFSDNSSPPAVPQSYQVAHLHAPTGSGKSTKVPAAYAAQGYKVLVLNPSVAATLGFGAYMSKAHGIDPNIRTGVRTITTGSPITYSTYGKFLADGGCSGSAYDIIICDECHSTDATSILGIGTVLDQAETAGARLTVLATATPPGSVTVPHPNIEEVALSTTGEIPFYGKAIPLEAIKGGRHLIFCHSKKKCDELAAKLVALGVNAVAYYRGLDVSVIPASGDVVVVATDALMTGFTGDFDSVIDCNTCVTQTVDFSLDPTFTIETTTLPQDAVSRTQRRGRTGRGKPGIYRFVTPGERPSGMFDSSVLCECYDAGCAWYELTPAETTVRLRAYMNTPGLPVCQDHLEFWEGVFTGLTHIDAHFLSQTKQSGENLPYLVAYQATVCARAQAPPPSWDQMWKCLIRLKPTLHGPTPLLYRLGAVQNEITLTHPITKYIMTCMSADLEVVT

[21] = target: Eukaryotic translation initiation factor 4H (Homo sapiens, UniProt Q15056); experiment: eIF4H binding inhibition – biochemical, uHTS, fluorescence polarization, translation initiation inhibitor project, primary screen (AID 2012)
[22] = target: Polyadenylate-binding protein 1 (Homo sapiens, UniProt P11940); experiment: blockers of PABP interaction with poly(A) – biochemical, fluorescence polarization, […] (AID 2014)
[23] = target: T6, Heat shock 70 kDa protein 1A (Homo sapiens, UniProt P0DMV8); experiment: small-molecule inhibition of Hsp70 – biochemical, TR-FRET (AID 786)
T6 sequence (P0DMV8 whole entry): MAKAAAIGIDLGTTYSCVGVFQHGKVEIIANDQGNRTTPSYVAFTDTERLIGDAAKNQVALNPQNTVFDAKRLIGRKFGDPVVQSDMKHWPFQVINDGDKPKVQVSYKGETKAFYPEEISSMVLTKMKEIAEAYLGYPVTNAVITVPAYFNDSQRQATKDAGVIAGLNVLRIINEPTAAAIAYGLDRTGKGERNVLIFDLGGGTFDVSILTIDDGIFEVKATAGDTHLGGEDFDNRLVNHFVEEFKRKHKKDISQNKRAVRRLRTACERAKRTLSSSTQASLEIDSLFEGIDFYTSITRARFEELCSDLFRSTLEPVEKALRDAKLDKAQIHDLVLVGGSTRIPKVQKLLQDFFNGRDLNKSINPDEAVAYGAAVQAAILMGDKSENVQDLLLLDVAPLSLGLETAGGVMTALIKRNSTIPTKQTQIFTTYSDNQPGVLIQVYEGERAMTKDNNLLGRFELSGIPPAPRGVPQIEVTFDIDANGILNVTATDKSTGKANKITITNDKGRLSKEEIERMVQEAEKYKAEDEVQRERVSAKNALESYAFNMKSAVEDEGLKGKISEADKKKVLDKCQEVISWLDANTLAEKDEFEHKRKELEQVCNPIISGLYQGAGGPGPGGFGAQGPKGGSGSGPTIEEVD

[24] = target: T6, Heat shock 70 kDa protein 1A; experiment: small molecules displacing fluorescent ligand from Hsp70 – biochemical, fluorescence polarization, primary screen (AID 583)
[25] = target: Estrogen receptor (Homo sapiens, UniProt P03372);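 note: potency for inhibiting coactivator peptide recruitment to the receptor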
Sequence of Estrogen receptor (P03372 whole entry): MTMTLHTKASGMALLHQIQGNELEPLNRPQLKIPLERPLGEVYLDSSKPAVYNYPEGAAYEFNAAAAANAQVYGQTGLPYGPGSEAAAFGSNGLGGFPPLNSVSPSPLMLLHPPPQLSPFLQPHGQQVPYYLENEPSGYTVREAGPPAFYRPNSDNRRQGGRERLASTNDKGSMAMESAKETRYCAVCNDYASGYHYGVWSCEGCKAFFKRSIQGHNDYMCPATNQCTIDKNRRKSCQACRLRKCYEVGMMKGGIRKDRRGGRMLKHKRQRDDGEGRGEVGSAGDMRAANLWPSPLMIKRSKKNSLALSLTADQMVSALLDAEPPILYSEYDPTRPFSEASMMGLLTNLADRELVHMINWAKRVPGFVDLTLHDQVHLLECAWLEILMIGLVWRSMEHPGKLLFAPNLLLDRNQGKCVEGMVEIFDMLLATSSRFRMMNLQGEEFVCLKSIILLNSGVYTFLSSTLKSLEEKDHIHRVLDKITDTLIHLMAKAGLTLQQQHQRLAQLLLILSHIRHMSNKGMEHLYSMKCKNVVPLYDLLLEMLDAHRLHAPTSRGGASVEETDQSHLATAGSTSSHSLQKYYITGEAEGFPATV

[26] = target: T7, Microphthalmia-associated transcription factor (Homo sapiens, UniProt O75030); experiment: reducers of TRPM1 reporter luminescence, concentration series – cell-based, SK-MEL-5, cherry-picked, set 3, MITF inhibitor project, dose response (AID 493073); type: functional;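 note: SK-MEL-5 melanoma cells with luciferase driven by the MITF target TRPM1 promoter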
T7 sequence (O75030 whole entry): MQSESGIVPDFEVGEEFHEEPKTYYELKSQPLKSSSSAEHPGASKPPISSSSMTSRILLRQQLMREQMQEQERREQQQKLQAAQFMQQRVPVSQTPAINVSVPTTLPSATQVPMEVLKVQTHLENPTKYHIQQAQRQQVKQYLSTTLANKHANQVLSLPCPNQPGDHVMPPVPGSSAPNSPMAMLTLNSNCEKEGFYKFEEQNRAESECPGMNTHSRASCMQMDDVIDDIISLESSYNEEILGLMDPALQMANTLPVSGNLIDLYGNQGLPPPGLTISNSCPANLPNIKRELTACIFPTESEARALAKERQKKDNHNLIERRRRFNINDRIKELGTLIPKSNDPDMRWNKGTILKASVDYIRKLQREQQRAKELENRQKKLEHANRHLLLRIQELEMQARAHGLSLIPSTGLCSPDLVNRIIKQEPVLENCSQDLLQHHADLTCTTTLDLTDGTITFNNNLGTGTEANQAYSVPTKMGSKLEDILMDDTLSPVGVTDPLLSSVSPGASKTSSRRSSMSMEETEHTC

[27] = tested on: HeLa; experiment: Cytotoxicity counterscreen assay for transcriptional activators of heat shock protein 70 (Hsp70). [Related pubchem assays: 1203, 1252 ]; type: functional; conditions: Homo sapiens;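 note: cells exposed to compound for 16 hours before readout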

## O=C1/C(=C/c2cccs2)NC(=S)N1C1CC1
[1]
  IC50: 6.44 µM (active)
[2]
  EC50: > 100 µM (not active)

## Cc1cc(I)c2c(c1)C1C=CCC1C(C(=O)O)N2 (configuration not stated)
[3]
  EC50: 20.7 µM (active)

## Cc1ccccc1N1C(=O)NC(=O)/C(=C/c2ccc(N3CCOCC3)o2)C1=O
[4]
  IC50: > 55.6 µM (not active)
[5]
  IC50: 30.5 µM (not active)
[6]
  EC50: > 100 µM (active)

## O=C(Nc1cccnc1)c1ccc(Cl)c(Cl)c1
[7]
  EC50: 26.2 µM (active)
[8]
  AC50: 3.94 µM (active)

## Cc1ccc(C(=O)O/N=C(\N)c2ccccn2)c(C)c1
[9]
  IC50: 13.1 µM (not active)
[10]
  AC50: 17.7 µM (active)
[11]
  IC50: > 80 µM (inactive)
[12]
  CC50: 22.5 µM (active)
[13]
  IC50: > 20 µM (inactive)

## O=C(Nc1cc(N2CCOCC2)ncn1)NC1(C(F)(F)F)Oc2ccccc2O1
[14]
  IC50: 2.7 µM (active)
[15]
  IC50: > 59.6 µM (not active)

## N=C1/C(=C/c2cccn2CCOc2ccccc2)C(=O)N=C2SC=C(c3ccccc3)N12
[16]
  AC50: 16.9 µM (active)
[17]
  IC50: > 69.5 µM (inactive)
[18]
  IC50: > 69.5 µM (inactive)

## C=CCN1CC[C@]23c4c5ccc(O)c4OC2C(=O)CC[C@@]3(O)C1C5 (some centres not stated)
[19]
  EC50: > 31.5 µM (inactive)

## Nc1c(C(=O)Nc2ccccc2F)sc2nc(-c3ccco3)ccc12
[20]
  IC50: > 36.3 µM (not active)

## Cc1ccc(NC(=O)COC(=O)/C=C/c2ccco2)cc1S(=O)(=O)N(C)C
[21]
  IC50: 21.9 µM (active)
[22]
  IC50: 90.5 µM (active)

## CCOC(=O)C1CCN(C(=O)Cc2c(F)cccc2Cl)CC1
[23]
  IC50: > 100 µM (not active)
[24]
  IC50: > 100 µM (not active)

## O=C(N/N=C/c1cccc(Oc2ccc([N+](=O)[O-])cc2[N+](=O)[O-])c1)c1cncc(Br)c1
[25]
  IC50: 27.9 µM (active)
[26]
  AC50: 243 µM (active)

## CCOC(=O)C1(C/C(C)=N/NC(N)=O)CC(C)OC1=O (configuration not stated)
[27]
  CC50: > 99 µM (not active)

— ChEMBL document CHEMBL1201862, “PubChem BioAssay data set” (2004)
